Data on 5 compounds can be found in patent EP2140864A2 (H. Lundbeck A/S, priority 2001, dated 2002).

Molecules are shown by their SMILES.

For one assay, the target named is T1, human 5HT1B (Homo sapiens, UniProt P28222).
T1 construct: expressed in transfected cells
Put plainly: Radioligand binding, 5HT1B receptor ([3H]-serotonin). Conditions: for Ki: Table 7, read-out: h5HT1B Ki; for selectivity ratio h5HT1B: Table 8, Ki h5HT1B divided by Ki hGAL3. As for the experimental part: (§1) Human 5HT1B, 5HT1D, 5HT1E, 5HT1F, and 5HT7 Receptors: The cell lysates of LM(tk-) clonal cell line stably transfected with the genes encoding each of these 5HT receptor-subtypes were prepared as described above. Cell membranes were suspended in 50mM Tris-HCl buffer (pH 7.4 at 37°C) containing 10 mM MgCl2, 0.2 mM EDTA, 10 µM pargyline, and 0.1% ascorbate. […] Nonspecific binding was determined in the presence of 10 µM serotonin. The bound radioligand was separated by filtration through GF/B filters using a cell harvester.
(§2) Binding data were analyzed using nonlinear regression and statistical techniques available in the GraphPAD Prism package (San Diego, CA). Enzymatic assay data were derived from a standard curve of reference compound data.

The target of the next assay is T2, human 5HT7 (Homo sapiens, UniProt P34969).
T2 construct: expressed in transfected cells
T2 sequence (P34969 1-445 isoform P34969-2): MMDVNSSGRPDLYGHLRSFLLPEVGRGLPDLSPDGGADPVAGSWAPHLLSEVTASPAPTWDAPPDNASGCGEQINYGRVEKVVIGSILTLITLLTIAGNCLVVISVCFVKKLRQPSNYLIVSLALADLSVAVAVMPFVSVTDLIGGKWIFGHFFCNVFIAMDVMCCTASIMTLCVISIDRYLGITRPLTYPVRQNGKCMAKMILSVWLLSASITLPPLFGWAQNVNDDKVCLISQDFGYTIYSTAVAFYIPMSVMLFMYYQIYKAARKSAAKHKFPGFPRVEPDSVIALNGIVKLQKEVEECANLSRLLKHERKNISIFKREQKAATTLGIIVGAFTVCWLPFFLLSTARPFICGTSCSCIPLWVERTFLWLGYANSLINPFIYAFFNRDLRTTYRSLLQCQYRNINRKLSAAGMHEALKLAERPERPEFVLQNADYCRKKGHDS
Kind of assay: Radioligand binding, 5HT7 receptor ([3H]-serotonin). The following applies: for Ki: Table 7, read-out: h5HT7 Ki; for selectivity ratio h5HT7: Table 8, Ki h5HT7 divided by Ki hGAL3. The method, then:
as §1, §2

In a further assay the target is T3, human dopamine D1 (Homo sapiens, UniProt P21728).
T3 construct: purchased BioSignal, Inc. (Montreal, Canada); host or cells: membranes of cells expressing the receptor
T3 sequence (P21728 whole entry): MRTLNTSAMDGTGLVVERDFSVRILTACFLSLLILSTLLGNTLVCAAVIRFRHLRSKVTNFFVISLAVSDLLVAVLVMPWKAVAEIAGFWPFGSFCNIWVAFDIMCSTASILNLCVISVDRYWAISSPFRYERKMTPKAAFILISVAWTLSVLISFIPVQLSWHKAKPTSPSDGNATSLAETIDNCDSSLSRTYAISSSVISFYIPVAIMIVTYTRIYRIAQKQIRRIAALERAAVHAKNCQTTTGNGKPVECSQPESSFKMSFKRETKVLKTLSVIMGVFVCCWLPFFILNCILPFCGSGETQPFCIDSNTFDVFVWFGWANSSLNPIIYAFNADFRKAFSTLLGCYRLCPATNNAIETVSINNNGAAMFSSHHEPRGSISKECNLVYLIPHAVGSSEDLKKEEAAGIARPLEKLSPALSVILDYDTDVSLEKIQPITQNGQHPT
Put plainly: Radioligand binding, dopamine D1 receptor. Conditions: for Ki: Table 9, read-out: hD1 Ki; for selectivity ratio hD1: Table 10, Ki hD1 divided by Ki hGAL3.
Description: (§3) Other receptors: Cell membranes expressing human dopamine D1, D2, D4 and rat D3 receptors were purchased through BioSignal, Inc. (Montreal, Canada). Binding assays using the histamine H1 receptor; dopamine receptors; and α1A, α1E, and α2 adrenergic receptors may be carried out according to the procedures described in U.S. Patent No. 5,780,485, the disclosure of which is hereby incorporated by reference in its entirety into this application. Binding assays using the dopamine D5 receptor may be carried out according to the procedures described in U.S. Patent No. 5,882,855, the disclosure of which is hereby incorporated by reference in its entirety into this application. Binding assays for the human α1D adrenergic receptor may be carried out according to the procedures described in U.S. Patent No. 6,156,518, the disclosure of which is hereby incorporated by reference in its entirety into this application.
as §2

Another assay deals with T4, rat 5HT2C receptor (Rattus norvegicus, UniProt P08909).
T4 construct: expressed in transfected cells
T4 sequence (P08909 33-460): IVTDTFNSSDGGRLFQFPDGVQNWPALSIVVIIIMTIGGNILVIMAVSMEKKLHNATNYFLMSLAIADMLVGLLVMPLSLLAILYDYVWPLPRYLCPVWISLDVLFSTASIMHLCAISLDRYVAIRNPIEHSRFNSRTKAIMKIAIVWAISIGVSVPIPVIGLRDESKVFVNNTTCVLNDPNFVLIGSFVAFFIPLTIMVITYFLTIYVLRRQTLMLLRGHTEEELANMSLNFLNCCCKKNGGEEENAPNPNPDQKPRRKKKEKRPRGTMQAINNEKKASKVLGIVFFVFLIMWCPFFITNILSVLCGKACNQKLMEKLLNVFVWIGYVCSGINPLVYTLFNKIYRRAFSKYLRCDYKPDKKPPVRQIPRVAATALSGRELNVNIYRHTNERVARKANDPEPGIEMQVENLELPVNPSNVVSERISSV
Kind of assay: Radioligand binding, 5HT2C receptor. The following applies: for Ki: Table 7, read-out: r5HT2C Ki; for selectivity ratio r5HT2C: Table 8, Ki r5HT2C divided by Ki hGAL3. The method, then:
Other 5-HT Receptors: Other serotonin receptor binding assays were performed according to published methods: rat 5HT2C receptor (Julius et al., 1988); and 5-HT6 (Monsma, et al., 1993). The binding assays using the 5-HT4 receptor were performed according to the procedures described in U.S. Patent No. 5,766,879, the disclosure of which is hereby incorporated by reference in its entirety into this application.
as §2

The next assay deals with T5, dopamine D5 receptor (Homo sapiens, UniProt P21918).
T5 construct: expressed in transfected cells
T5 sequence (P21918 whole entry): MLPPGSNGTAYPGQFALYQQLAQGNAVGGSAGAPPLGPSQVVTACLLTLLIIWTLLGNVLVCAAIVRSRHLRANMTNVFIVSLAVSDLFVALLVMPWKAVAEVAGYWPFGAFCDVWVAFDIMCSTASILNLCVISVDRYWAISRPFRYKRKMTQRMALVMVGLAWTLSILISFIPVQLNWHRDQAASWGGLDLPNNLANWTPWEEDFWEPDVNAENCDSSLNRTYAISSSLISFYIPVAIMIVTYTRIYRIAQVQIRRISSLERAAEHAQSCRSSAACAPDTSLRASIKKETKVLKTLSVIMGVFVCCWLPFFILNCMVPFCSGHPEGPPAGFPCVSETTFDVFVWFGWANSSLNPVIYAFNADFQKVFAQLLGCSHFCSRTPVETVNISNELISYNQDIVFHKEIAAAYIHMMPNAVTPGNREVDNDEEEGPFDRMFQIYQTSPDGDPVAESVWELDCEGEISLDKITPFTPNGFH
Kind of assay: Radioligand binding, dopamine D5 receptor. The following applies: for Ki: Table 9, read-out: hD5 Ki; for selectivity ratio hD5: Table 10, Ki hD5 divided by Ki hGAL3.
Description: as §3, §2

A further assay concerns the target T6, human α1B adrenoceptor (Homo sapiens, UniProt P35368).
T6 construct: expressed in transfected cells
T6 sequence (P35368 1-520): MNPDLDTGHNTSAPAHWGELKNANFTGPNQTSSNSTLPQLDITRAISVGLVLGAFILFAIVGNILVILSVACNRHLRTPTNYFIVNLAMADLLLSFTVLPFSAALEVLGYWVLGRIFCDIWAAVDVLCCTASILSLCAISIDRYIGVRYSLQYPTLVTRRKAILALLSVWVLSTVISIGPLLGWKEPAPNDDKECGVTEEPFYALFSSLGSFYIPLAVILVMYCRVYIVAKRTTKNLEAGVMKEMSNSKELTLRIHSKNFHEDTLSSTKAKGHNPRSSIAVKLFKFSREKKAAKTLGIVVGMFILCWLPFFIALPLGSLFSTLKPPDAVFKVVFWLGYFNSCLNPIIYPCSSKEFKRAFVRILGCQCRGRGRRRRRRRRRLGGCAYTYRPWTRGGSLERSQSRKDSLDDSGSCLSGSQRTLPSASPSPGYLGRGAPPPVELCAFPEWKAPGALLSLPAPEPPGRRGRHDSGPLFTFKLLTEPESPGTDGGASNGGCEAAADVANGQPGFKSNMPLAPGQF
Kind of assay: Radioligand binding, α1B adrenergic receptor. The following applies: for Ki: Table 9, read-out: hα1B Ki; for selectivity ratio hα1B: Table 10, Ki hα1B divided by Ki hGAL3.

In another assay the target is T7, human 5HT1F (Homo sapiens, UniProt P30939).
T7 construct: expressed in transfected cells
T7 sequence (P30939 1-366): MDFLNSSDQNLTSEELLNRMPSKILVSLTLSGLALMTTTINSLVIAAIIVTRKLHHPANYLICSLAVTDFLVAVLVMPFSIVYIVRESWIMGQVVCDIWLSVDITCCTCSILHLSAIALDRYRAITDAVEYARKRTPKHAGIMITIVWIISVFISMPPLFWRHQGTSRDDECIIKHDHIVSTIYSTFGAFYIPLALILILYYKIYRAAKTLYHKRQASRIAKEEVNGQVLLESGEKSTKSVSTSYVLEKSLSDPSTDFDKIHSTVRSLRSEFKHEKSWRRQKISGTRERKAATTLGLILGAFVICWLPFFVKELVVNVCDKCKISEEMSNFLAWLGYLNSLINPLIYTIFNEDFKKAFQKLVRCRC
Kind of assay: Radioligand binding, 5HT1F receptor ([3H]-serotonin). The following applies: for Ki: Table 7, read-out: h5HT1F Ki; for selectivity ratio h5HT1F: Table 8, Ki h5HT1F divided by Ki hGAL3. As for the experimental part:
as §1, §2

T1 sequence (P28222 whole entry): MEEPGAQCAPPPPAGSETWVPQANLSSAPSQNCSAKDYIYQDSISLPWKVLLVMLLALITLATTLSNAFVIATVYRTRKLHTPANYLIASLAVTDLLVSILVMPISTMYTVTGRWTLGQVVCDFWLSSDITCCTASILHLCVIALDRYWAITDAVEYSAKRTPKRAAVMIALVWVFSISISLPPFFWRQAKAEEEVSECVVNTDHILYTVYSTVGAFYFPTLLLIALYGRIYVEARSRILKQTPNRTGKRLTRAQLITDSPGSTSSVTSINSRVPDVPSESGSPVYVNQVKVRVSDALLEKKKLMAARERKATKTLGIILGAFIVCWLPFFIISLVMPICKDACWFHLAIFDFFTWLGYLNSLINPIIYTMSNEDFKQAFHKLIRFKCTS

The term Ki denotes the dissociation constant of the complex between target and ligand, obtained from inhibition or displacement. Regarding `O=C1C(=Nc2ccc(Br)cc2)c2ccccc2N1c1ccccc1` [Example 98, 3-[(4-BROMOPHENYL)IMINO]-1-PHENYL-1,3-DIHYDRO-2H-INDOL-2-ONE], on human 5HT1B, the inhibition constant (Ki) was found to be 2.42 µM and the “selectivity ratio h5HT1B” value is over 30. On human 5HT7, the Ki stood at 8.46 µM and the “selectivity ratio h5HT7” value was over 100. Also, at human dopamine D1, the Ki was determined as 2.52 µM and the “selectivity ratio hD1” value is over 30. For the same compound, on rat 5HT2C receptor, the inhibitory constant (Ki) came out at 2.26 µM and the “selectivity ratio r5HT2C” value is over 30. At dopamine D5 receptor, the Ki amounted to 1.2 µM and the “selectivity ratio hD5” value is over 30. Also, on human α1B adrenoceptor, the Ki stood at 31.7 µM and the “selectivity ratio hα1B” value is over 100. For the same compound, on human 5HT1F, the inhibition constant Ki was 3.36 µM and the “selectivity ratio h5HT1F” value is given as over 30.
In the case of `O=C1C(=Nc2cccc(Cl)c2)c2ccccc2N1c1ccccc1` [Example 94, 3-[(3-CHLOROPHENYL)IMINO]-1-PHENYL-1,3-DIHYDRO-2H-INDOL-2-ONE], at human 5HT1B, the Ki stood at 3.35 µM and the “selectivity ratio h5HT1B” value is over 30. At human 5HT7, the inhibitory constant (Ki) came out at 8.02 µM and the “selectivity ratio h5HT7” value is recorded as over 100. On human dopamine D1, the inhibitory constant (Ki) is 2.15 µM and the “selectivity ratio hD1” value is listed as over 30. On rat 5HT2C receptor, the inhibition constant (Ki) was determined as 4.1 µM and the “selectivity ratio r5HT2C” value is listed as over 30. In addition, at dopamine D5 receptor, the inhibitory constant (Ki) came to 0.727 µM and the “selectivity ratio hD5” value amounted to 15. Moreover, at human α1B adrenoceptor, the inhibitory constant (Ki) turned out to be 31.1 µM and the “selectivity ratio hα1B” value was over 100. Moreover, at human 5HT1F, the inhibition constant Ki worked out at 5.68 µM and the “selectivity ratio h5HT1F” value was over 100.
For `Cc1ccc(Nc2cc(N3CCCCC3)nc(N(C)CCc3c[nH]c4ccccc34)n2)cc1` [Example 11], on human 5HT1B, the Ki was determined as 0.101 µM and the “selectivity ratio h5HT1B” value is reported as 1. On human 5HT7, the Ki was found to be 1.01 µM and the “selectivity ratio h5HT7” value turned out to be 11. Besides, on human dopamine D1, the Ki turned out to be 0.079 µM and the “selectivity ratio hD1” value is recorded as 0.9. Moreover, at rat 5HT2C receptor, the Ki amounted to 0.802 µM and the “selectivity ratio r5HT2C” value is given as 9. In addition, at dopamine D5 receptor, the Ki was found to be 0.064 µM and the “selectivity ratio hD5” value stood at 0.7. Also, on human α1B adrenoceptor, the inhibition constant Ki stood at 1.44 µM and the “selectivity ratio hα1B” value is 16. Also, on human 5HT1F, the inhibition constant Ki is 1.78 µM and the “selectivity ratio h5HT1F” value was 20.
As for `CN(CCc1c[nH]c2ccccc12)c1nc(Nc2ccc(F)c(F)c2)cc(N2CCCCC2)n1` [Example 15], on human 5HT1B, the inhibition constant Ki was 0.487 µM and the “selectivity ratio h5HT1B” value was 7. Moreover, on human 5HT7, the inhibitory constant (Ki) was 2.53 µM and the “selectivity ratio h5HT7” value is on record as over 30. Moreover, on human dopamine D1, the Ki was 0.344 µM and the “selectivity ratio hD1” value came out at 5. In addition, on rat 5HT2C receptor, the Ki came out at 0.572 µM and the “selectivity ratio r5HT2C” value is 8. In addition, on dopamine D5 receptor, the Ki came out at 0.078 µM and the “selectivity ratio hD5” value was 1. Also, on human α1B adrenoceptor, the inhibitory constant (Ki) is 0.853 µM and the “selectivity ratio hα1B” value was found to be 12. Moreover, on human 5HT1F, the Ki came to 4.19 µM and the “selectivity ratio h5HT1F” value is on record as over 30.
As for `Cc1ccc(Nc2cc(N3CCCCC3)nc(N3CCN(c4ncccc4C(F)(F)F)CC3)n2)cc1` [Example 34], on human 5HT1B, the inhibition constant (Ki) was 1.06 µM and the “selectivity ratio h5HT1B” value is listed as over 30. At human 5HT7, the inhibition constant (Ki) amounted to 4.44 µM and the “selectivity ratio h5HT7” value is listed as over 100. On human dopamine D1, the inhibition constant Ki was determined as 0.29 µM and the “selectivity ratio hD1” value turned out to be 13. Moreover, at rat 5HT2C receptor, the Ki was 2.08 µM and the “selectivity ratio r5HT2C” value was over 30. Besides, on dopamine D5 receptor, the Ki was 0.111 µM and the “selectivity ratio hD5” value was found to be 5. On human α1B adrenoceptor, the Ki is 15 µM and the “selectivity ratio hα1B” value is on record as over 100. For the same compound, on human 5HT1F, the Ki was 4.8 µM and the “selectivity ratio h5HT1F” value was over 100.
